According to patent US11370796B2, “Substituted pyrazoles as LRRK2 inhibitors” (OSCOTEC INC., priority 2017, dated 2022):
Like-named read-outs stand apart in the source and are kept apart here.

Target: LRRK2 (leucine-rich repeat kinase 2) (Homo sapiens (Human), UniProt Q5S007)
Test: Inhibitory effect on LRRK2 in vitro (LANCE kinase assay)
Type: biochemical
Experimental: The inhibitory effect of Compounds 1 to 62 on LRRK2 (leucine-rich repeat kinase 2) in vitro was measured. In the analysis of the results, IC50 values were calculated for a quantitative comparison of the in vitro activity.
After the compound was dissolved in 100% DMSO at 10 mM, it was serially diluted to the range of 1 μM to 10 μM using biochemical LRRK2 assay buffer (50 mM HEPES (4-(2-hydroxyethyl)-1-piperazineethanesulfonic acid) pH 7.5, 10 mM MgCl2, 1 mM EGTA (1,2-bis(o-aminophenoxy)ethane-N,N,N′,N′-tetraacetic acid), 2 mM DTT (dithiothreitol), and 0.01% TWEEN-20 (Aldrich)). Purified LRRK2 (CARNA BIOSCIENCES) was added to a black U-bottom 96-well microtiter plate containing 6 μl of the serially diluted compound, followed by incubation at room temperature for 30 minutes. For the kinase reaction, ATP and a substrate solution specific urea-polypeptide (ULIGHT™-poly TK, PerkinElimer) were added. The reaction was carried out at room temperature for 1 hour, and it was detected with an detection solution (brand name: LANCE™) containing EDTA. A LANCE detection solution containing europium-labeled antibody ([…] PT66) was added, followed by incubation at room temperature for 50 minutes, to terminate the kinase experiment. The phosphorylated substrate was detected by 665 nm emission measurement. IC50 values were calculated by a non-linear regression analysis using a Prism program (PRISM™ software) with reference to the absence of a kinase inhibitor.
As a comparative assay, a compound LRR2-IN-1, that known to be a reference compound for LRRK2 inhibitor, have also tested an inhibitory activity.

[1] = Table 1, class symbols, read-out: LRRK2 inhibition rate (IC50)
[2] = purified LRRK2, Table 6, read-out: IC50

Chain of LRRK2 (leucine-rich repeat kinase 2) (Q5S007 whole entry): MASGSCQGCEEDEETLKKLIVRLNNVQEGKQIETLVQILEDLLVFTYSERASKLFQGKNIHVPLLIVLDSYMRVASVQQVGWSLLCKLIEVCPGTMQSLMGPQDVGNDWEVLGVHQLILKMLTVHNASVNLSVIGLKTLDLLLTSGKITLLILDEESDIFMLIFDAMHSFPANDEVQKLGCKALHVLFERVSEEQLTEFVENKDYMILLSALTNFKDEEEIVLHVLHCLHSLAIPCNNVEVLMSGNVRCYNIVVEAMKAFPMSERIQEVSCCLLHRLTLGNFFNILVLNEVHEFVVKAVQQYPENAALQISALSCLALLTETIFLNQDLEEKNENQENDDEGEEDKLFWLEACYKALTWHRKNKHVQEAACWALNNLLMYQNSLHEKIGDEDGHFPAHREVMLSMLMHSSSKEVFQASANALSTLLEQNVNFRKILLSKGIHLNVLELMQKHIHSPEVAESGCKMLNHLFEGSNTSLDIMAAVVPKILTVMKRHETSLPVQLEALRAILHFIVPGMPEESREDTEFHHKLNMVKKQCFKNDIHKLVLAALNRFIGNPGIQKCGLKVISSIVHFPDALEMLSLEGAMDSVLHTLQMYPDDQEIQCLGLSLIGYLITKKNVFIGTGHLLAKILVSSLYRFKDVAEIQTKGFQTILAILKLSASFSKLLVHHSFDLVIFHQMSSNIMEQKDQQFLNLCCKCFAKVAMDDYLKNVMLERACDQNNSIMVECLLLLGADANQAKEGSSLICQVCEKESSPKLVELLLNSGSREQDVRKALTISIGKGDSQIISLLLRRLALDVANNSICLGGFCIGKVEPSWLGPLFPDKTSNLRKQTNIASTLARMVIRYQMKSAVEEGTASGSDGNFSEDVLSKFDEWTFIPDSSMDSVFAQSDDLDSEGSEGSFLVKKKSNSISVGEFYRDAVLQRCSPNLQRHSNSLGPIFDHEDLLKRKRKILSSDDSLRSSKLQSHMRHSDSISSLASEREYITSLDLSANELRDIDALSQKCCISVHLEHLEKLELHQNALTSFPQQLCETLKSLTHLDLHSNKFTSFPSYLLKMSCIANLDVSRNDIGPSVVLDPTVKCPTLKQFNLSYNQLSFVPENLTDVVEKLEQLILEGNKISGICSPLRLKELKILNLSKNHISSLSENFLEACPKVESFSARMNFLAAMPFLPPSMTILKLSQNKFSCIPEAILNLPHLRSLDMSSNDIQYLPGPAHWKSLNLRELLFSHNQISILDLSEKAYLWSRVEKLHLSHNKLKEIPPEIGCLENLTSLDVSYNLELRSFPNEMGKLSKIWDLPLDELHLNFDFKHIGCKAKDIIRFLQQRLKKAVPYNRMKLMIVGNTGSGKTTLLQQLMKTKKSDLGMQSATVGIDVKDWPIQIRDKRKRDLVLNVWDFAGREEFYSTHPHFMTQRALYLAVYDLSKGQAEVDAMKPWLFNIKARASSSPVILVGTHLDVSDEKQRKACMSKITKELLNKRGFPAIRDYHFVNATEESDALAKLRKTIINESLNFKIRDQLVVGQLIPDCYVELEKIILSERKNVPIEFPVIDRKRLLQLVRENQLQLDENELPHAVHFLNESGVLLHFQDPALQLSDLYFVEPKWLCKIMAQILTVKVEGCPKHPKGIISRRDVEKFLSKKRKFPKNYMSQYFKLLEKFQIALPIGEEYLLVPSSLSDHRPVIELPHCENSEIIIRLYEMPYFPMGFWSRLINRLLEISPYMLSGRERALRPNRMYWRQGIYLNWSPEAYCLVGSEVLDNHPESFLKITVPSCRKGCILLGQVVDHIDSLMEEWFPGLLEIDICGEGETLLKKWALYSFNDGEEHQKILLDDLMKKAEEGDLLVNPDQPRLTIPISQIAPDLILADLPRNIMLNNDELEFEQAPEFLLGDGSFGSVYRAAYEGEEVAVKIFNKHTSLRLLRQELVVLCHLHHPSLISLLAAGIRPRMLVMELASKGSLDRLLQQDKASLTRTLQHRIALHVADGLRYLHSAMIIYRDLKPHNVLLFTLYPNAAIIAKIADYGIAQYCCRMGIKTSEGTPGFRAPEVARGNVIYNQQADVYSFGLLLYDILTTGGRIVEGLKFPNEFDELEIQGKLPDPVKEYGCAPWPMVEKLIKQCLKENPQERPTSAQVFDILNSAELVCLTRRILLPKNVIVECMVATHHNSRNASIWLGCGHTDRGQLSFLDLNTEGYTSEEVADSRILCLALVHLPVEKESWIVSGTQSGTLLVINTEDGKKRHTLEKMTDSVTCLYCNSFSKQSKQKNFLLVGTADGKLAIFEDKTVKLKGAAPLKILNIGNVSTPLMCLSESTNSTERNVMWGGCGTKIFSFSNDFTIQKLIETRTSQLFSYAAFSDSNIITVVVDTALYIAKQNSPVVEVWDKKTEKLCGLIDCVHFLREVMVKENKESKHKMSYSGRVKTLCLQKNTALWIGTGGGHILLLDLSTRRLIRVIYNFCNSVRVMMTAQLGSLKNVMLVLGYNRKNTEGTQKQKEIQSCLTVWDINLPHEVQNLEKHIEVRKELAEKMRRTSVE

IC50 [1] [µM] | IC50 [2] [µM] | SMILES
< 0.01 | 0.00607 | CCn1cc(Cl)c2cnc(Nc3cn(C4CCN(C(=O)C(C)(C)C)CC4)nc3Cl)nc21 [Compound 33, 1-(4-(3-chloro-4-(5-chloro-7-ethyl-7H-pyrrolo[2,3-d]pyrimidin-2-ylamino)-1H-pyrazol-1-yl)piperidin-1-yl)-2,2-dimethylpropane-1-one]
0.1 to 1 | – | CCn1cc(Cl)c2cnc(Nc3c(C)nn(C4CCN(S(C)(=O)=O)CC4)c3C)nc21 [Compound 34, 5-chloro-N-(3,5-dimethyl-1-(1-(methylsulfonyl)piperidin-4-yl)-1H-pyrazol-4-yl)-7-ethyl-7H-pyrrolo[2,3-d]pyrimidin-2-amine]
< 0.01 | 0.00666 | CCn1cc(Cl)c2cnc(Nc3cn(C4CCN(S(=O)(=O)C5CC5)CC4)nc3Cl)nc21 [Compound 35, 5-chloro-N-(3-chloro-1-(1-(cyclopropylsulfonyl)piperidin-4-yl)-1H-pyrazol-4-yl)-7-ethyl-7H-pyrrolo[2,3-d]pyrimidin-2-amine]
0.01 to 0.1 | – | CCn1cc(Cl)c2cnc(Nc3cn([C@@H]4CCN(S(C)(=O)=O)C4)nc3Cl)nc21 [Compound 36, (R)-5-chloro-N-(3-chloro-1-(1-(methylsulfonyl)pyrrolidin-3-yl)-1H-pyrazol-4-yl)-7-ethyl-7H-pyrrolo[2,3-d]pyrimidin-2-amine]
0.01 to 0.1 | – | CCn1cc(Cl)c2cnc(Nc3cn([C@H]4CCN(S(C)(=O)=O)C4)nc3Cl)nc21 [Compound 37, (S)-5-chloro-N-(3-chloro-1-(1-(methylsulfonyl)pyrrolidin-3-yl)-1H-pyrazol-4-yl)-7-ethyl-7H-pyrrolo[2,3-d]pyrimidin-2-amine]
0.01 to 0.1 | – | CCn1cc(Cl)c2cnc(Nc3cn([C@@H]4CCN(C(=O)C5CCCC5)C4)nc3Cl)nc21 [Compound 38, (R)-(3-(3-chloro-4-(5-chloro-7-ethyl-7H-pyrrolo[2,3-d]pyrimidin-2-ylamino)-1H-pyrazol-1-yl)pyrrolidin-1-yl)(cyclopentyl)methanone]
0.01 to 0.1 | – | CCn1cc(Cl)c2cnc(Nc3cn([C@H]4CCN(C(=O)C5CCCC5)C4)nc3Cl)nc21 [Compound 39, (S)-(3-(3-chloro-4-(5-chloro-7-ethyl-7H-pyrrolo[2,3-d]pyrimidin-2-ylamino)-1H-pyrazol-1-yl)pyrrolidin-1-yl)(cyclopentyl)methanone]
0.01 to 0.1 | – | CCn1cc(Cl)c2cnc(Nc3cn(C4CN(S(C)(=O)=O)C4)nc3Cl)nc21 [Compound 40, 5-chloro-N-(3-chloro-1-(1-(methylsulfonyl)azetidin-3-yl)-1H-pyrazol-4-yl)-7-ethyl-7H-pyrrolo[2,3-d]pyrimidin-2-amine]
0.01 to 0.1 | – | CCn1cc(Cl)c2cnc(Nc3cn(C4CN(C(=O)C5CC5)C4)nc3Cl)nc21 [Compound 41, (3-(3-chloro-4-(5-chloro-7-ethyl-7H-pyrrolo[2,3-d]pyrimidin-2-ylamino)-1H-pyrazol-1-yl)azetidin-1-yl)(cyclopropyl)methanone]
< 0.01 | – | CCn1cc(Cl)c2cnc(Nc3cn(C4CCCN(S(C)(=O)=O)CC4)nc3Cl)nc21 (centres unmarked) [Compound 42, 5-chloro-N-(3-chloro-1-(1-(methylsulfonyl)azepan-4-yl)-1H-pyrazol-4-yl)-7-ethyl-7H-pyrrolo[2,3-d]pyrimidin-2-amine]
< 0.01 | – | CCn1cc(Cl)c2cnc(Nc3cn(C4CCCN(C(=O)C5CC5)CC4)nc3Cl)nc21 (centres unmarked) [Compound 43, (4-(3-chloro-4-(5-chloro-7-ethyl-7H-pyrrolo[2,3-d]pyrimidin-2-ylamino)-1H-pyrazol-1-yl)azepan-1-yl)(cyclopropyl)methanone]
0.01 to 0.1 | – | CCn1nc(Cl)c2cnc(Nc3cn(-c4ccc(F)cc4)nc3Cl)nc21 [Compound 44, 3-chloro-N-(3-chloro-1-(4-fluorophenyl)-1H-pyrazol-4-yl)-1-ethyl-1H-pyrazolo[3,4-d]pyrimidin-6-amine]
0.01 to 0.1 | – | CCn1nc(Cl)c2cnc(Nc3cnn(C4CCN(C5COC5)CC4)c3Cl)nc21 [Compound 45, 3-chloro-N-(5-chloro-1-(1-(oxetan-3-yl)piperidin-4-yl)-1H-pyrazol-4-yl)-1-ethyl-1H-pyrazolo[3,4-d]pyrimidin-6-amine]
< 0.01 | 0.00791 | CS(=O)(=O)N1CCC(n2cc(Nc3ncc4c(Cl)nn(C5CC5)c4n3)c(Cl)n2)CC1 [Compound 46, 3-chloro-N-(3-chloro-1-(1-(methylsulfonyl)piperidin-4-yl)-1H-pyrazol-4-yl)-1-cyclopropyl-1H-pyrazolo[3,4-d]pyrimidin-6-amine]
< 0.01 | 0.00648 | CCn1nc(Cl)c2cnc(Nc3cn(C4CCN(S(=O)(=O)C5CC5)CC4)nc3Cl)nc21 [Compound 47, 3-chloro-N-(3-chloro-1-(1-(cyclopropylsulfonyl)piperidin-4-yl)-1H-pyrazol-4-yl)-1-ethyl-1H-pyrazolo[3,4-d]pyrimidin-6-amine]
0.01 to 0.1 | – | CCn1nc(Cl)c2cnc(Nc3cn(C4CCN(C(=O)C(F)(F)F)CC4)nc3Cl)nc21 [Compound 48, 1-(4-(3-chloro-4-(3-chloro-1-ethyl-1H-pyrazolo[3,4-d]pyrimidin-6-ylamino)-1H-pyrazol-1-yl)piperidin-1-yl)-2,2,2-trifluoroethanone]
0.01 to 0.1 | – | CS(=O)(=O)N1CCC(n2cc(Nc3ncc4c(Cl)nn(CC(F)(F)F)c4n3)c(Cl)n2)CC1 [Compound 49, 3-chloro-N-(3-chloro-1-(1-(methylsulfonyl)piperidin-4-yl)-1H-pyrazol-4-yl)-1-(2,2,2-trifluoroethyl)-1H-pyrazolo[3,4-d]pyrimidin-6-amine]
0.01 to 0.1 | – | FC(F)(F)Cn1nc(Cl)c2cnc(Nc3cnn(C4CCN(C5COC5)CC4)c3Cl)nc21 [Compound 50, 3-chloro-N-(5-chloro-1-(1-(oxetan-3-yl)piperidin-4-yl)-1H-pyrazol-4-yl)-1-(2,2,2-trifluoroethyl)-1H-pyrazolo[3,4-d]pyrimidin-6-amine]
< 0.01 | 0.00475 | CCn1nc(Cl)c2cnc(Nc3cn(C4CCCN(S(C)(=O)=O)CC4)nc3Cl)nc21 (centres unmarked) [Compound 51, 3-chloro-N-(3-chloro-1-(1-(methylsulfonyl)azepan-4-yl)-1H-pyrazol-4-yl)-1-ethyl-1H-pyrazolo[3,4-d]pyrimidin-6-amine]
< 0.01 | 0.0056 | CCn1nc(Cl)c2cnc(Nc3cn(C4CCCN(C(=O)C5CC5)CC4)nc3Cl)nc21 (centres unmarked) [Compound 52, (4-(3-chloro-4-(3-chloro-1-ethyl-1H-pyrazolo[3,4-d]pyrimidin-6-ylamino)-1H-pyrazol-1-yl)azepan-1-yl)(cyclopropyl)methanone]
< 0.01 | – | CCn1nc(Cl)c2cnc(Nc3cn(C4CCN(C(=O)C(C)(C)C)CC4)nc3Cl)nc21 [Compound 53, 1-(4-(3-chloro-4-(3-chloro-1-ethyl-1H-pyrazolo[3,4-d]pyrimidin-6-ylamino)-1H-pyrazol-1-yl)piperidin-1-yl)-2,2-dimethylpropane-1-one]
< 0.01 | – | CCn1nc(Cl)c2cnc(Nc3cn(C4CCN(C(=O)N5CCOCC5)CC4)nc3Cl)nc21 [Compound 54, (4-(3-chloro-4-(3-chloro-1-ethyl-1H-pyrazolo[3,4-d]pyrimidin-6-ylamino)-1H-pyrazol-1-yl)piperidin-1-yl)(morpholino)methanone]
< 0.01 | 0.00449 | CCn1nc(Cl)c2cnc(Nc3cn(C4CCN(S(C)(=O)=O)CC4)nc3Cl)nc21 [Compound 55, 3-chloro-N-(3-chloro-1-(1-(methylsulfonyl)piperidin-4-yl)-1H-pyrazol-4-yl)-1-ethyl-1H-pyrazolo[3,4-d]pyrimidin-6-amine]
0.1 to 1 | – | CCn1nc(Cl)c2cnc(Nc3c(Cl)nn(C4CCN(C(=O)C5CC5)CC4)c3C)nc21 [Compound 56, (4-(3-chloro-4-(3-chloro-1-ethyl-1H-pyrazolo[3,4-d]pyrimidin-6-ylamino)-5-methyl-1H-pyrazol-1-yl)piperidin-1-yl)(cyclopropyl)methanone]
< 0.01 | 0.00722 | CCn1nc(Cl)c2cnc(Nc3cn(C4CCN(C(=O)C5CC5)CC4)nc3Cl)nc21 [Compound 57, (4-(3-chloro-4-(3-chloro-1-ethyl-1H-pyrazolo[3,4-d]pyrimidin-6-ylamino)-1H-pyrazol-1-yl)piperidin-1-yl)(cyclopropyl)methanone]
< 0.01 | 0.00592 | CCn1nc(Cl)c2cnc(Nc3cn(C4CCN(C(C)=O)CC4)nc3Cl)nc21 [Compound 58, 1-(4-(3-chloro-4-(3-chloro-1-ethyl-1H-pyrazolo[3,4-d]pyrimidin-6-ylamino)-1H-pyrazol-1-yl)piperidin-1-yl)ethanone]
< 0.01 | 0.00394 | CCn1nc(Cl)c2cnc(Nc3cn(C4CCN(S(=O)(=O)CC)CC4)nc3Cl)nc21 [Compound 59, 3-chloro-N-(3-chloro-1-(1-(ethylsulfonyl)piperidin-4-yl)-1H-pyrazol-4-yl)-1-ethyl-1H-pyrazolo[3,4-d]pyrimidin-6-amine]
0.01 to 0.1 | – | CCn1nc(Cl)c2cnc(Nc3cn(C4CN(C(=O)C5CC5)C4)nc3Cl)nc21 [Compound 60, (3-(3-chloro-4-(3-chloro-1-ethyl-1H-pyrazolo[3,4-d]pyrimidin-6-ylamino)-1H-pyrazol-1-yl)azetidin-1-yl)(cyclopropyl)methanone]
